This note sets out measurements from ChEMBL document CHEMBL5303573, “Mapping human microbiome drug metabolism by gut bacteria and their genes” (Nature, 2019).

The first series can be described thus: The drug is tested on Bifidobacterium longum subsp. Infantis strain: CCUG52486 for biotransformation. The drug concentrations were measured before and after a 12-h incubation by liquid-chromatography-coupled mass spectrometry (LC–MS). Particulars: 2 µM.
As to `CCOc1ccc2nc(S(N)(=O)=O)sc2c1` [ETHOXZOLAMIDE], the “Bacterial Biotransformation” value is reported as “Compound metabolized”.
As for `CC(=O)Oc1ccc(C(c2ccc(OC(C)=O)cc2)c2ccccn2)cc1` [BISACODYL], the “Bacterial Biotransformation” value is “Compound metabolized”.
In the case of `COc1ccc2[nH]c([S+]([O-])Cc3ncc(C)c(OC)c3C)nc2c1` (stereo not given) [OMEPRAZOLE], the “Bacterial Biotransformation” value is “Compound metabolized”.

A short description of another series: The drug is tested on Collinsella aerofaciens strain: ATCC25986 for biotransformation. The drug concentrations were measured before and after a 12-h incubation by liquid-chromatography-coupled mass spectrometry (LC–MS). Particulars: 2 µM.
As to `CCOc1ccc2nc(S(N)(=O)=O)sc2c1` [ETHOXZOLAMIDE], the “Bacterial Biotransformation” value was “Compound metabolized”.
Turning to `CC(=O)Oc1ccc(C(c2ccc(OC(C)=O)cc2)c2ccccn2)cc1` [BISACODYL], the “Bacterial Biotransformation” value is given as “Compound metabolized”.
Take `COc1ccc2[nH]c([S+]([O-])Cc3ncc(C)c(OC)c3C)nc2c1` (stereo not given) [OMEPRAZOLE]: the “Bacterial Biotransformation” value is listed as “Compound metabolized”.

A further series in a line: The drug is tested on Bacteroides caccae strain: ATCC43185 for biotransformation. The drug concentrations were measured before and after a 12-h incubation by liquid-chromatography-coupled mass spectrometry (LC–MS). Particulars: 2 µM.
As to `CCOc1ccc2nc(S(N)(=O)=O)sc2c1` [ETHOXZOLAMIDE], the “Bacterial Biotransformation” value is on record as “Compound metabolized”.
On the same count and under the same terms, as for `CC(=O)Oc1ccc(C(c2ccc(OC(C)=O)cc2)c2ccccn2)cc1` [BISACODYL], the entry is “Compound metabolized”; as for `COc1ccc2[nH]c([S+]([O-])Cc3ncc(C)c(OC)c3C)nc2c1` (stereo not given) [OMEPRAZOLE], “Compound metabolized”.

The next series is described as follows: The drug is tested on Bacteroides finegoldii strain: DSM17565 for biotransformation. The drug concentrations were measured before and after a 12-h incubation by liquid-chromatography-coupled mass spectrometry (LC–MS). Particulars: 2 µM.
With `CCOc1ccc2nc(S(N)(=O)=O)sc2c1` [ETHOXZOLAMIDE], the “Bacterial Biotransformation” value is “Compound metabolized”.
On the same count and under the same terms, then `CC(=O)Oc1ccc(C(c2ccc(OC(C)=O)cc2)c2ccccn2)cc1` [BISACODYL], with “Compound metabolized”.
Still for that read-out and setting: as for `COc1ccc2[nH]c([S+]([O-])Cc3ncc(C)c(OC)c3C)nc2c1` (stereo not given) [OMEPRAZOLE], the entry is “Compound metabolized”.

Another series can be described thus: The drug is tested on Bacteroides fragilis strain: HMW615 for biotransformation. The drug concentrations were measured before and after a 12-h incubation by liquid-chromatography-coupled mass spectrometry (LC–MS). Particulars: 2 µM.
Consider `CCOc1ccc2nc(S(N)(=O)=O)sc2c1` [ETHOXZOLAMIDE], for which the “Bacterial Biotransformation” value was “Compound NOT metabolized”.
For `CC(=O)Oc1ccc(C(c2ccc(OC(C)=O)cc2)c2ccccn2)cc1` [BISACODYL], the “Bacterial Biotransformation” value is “Compound metabolized”.
`COc1ccc2[nH]c([S+]([O-])Cc3ncc(C)c(OC)c3C)nc2c1` (stereo not given) [OMEPRAZOLE]: the “Bacterial Biotransformation” value is given as “Compound metabolized”.

A further series in a line: The drug is tested on Bacteroides fragilis strain: ATCC43859 for biotransformation. The drug concentrations were measured before and after a 12-h incubation by liquid-chromatography-coupled mass spectrometry (LC–MS). Particulars: 2 µM.
As to `CCOc1ccc2nc(S(N)(=O)=O)sc2c1` [ETHOXZOLAMIDE], the “Bacterial Biotransformation” value is “Compound NOT metabolized”.
The same measure, in the same setting: then `CC(=O)Oc1ccc(C(c2ccc(OC(C)=O)cc2)c2ccccn2)cc1` [BISACODYL], with “Compound metabolized”; and `COc1ccc2[nH]c([S+]([O-])Cc3ncc(C)c(OC)c3C)nc2c1` (stereo not given) [OMEPRAZOLE], with “Compound metabolized”.

A short description of the next series: The drug is tested on Bacteroides xylanisolvens strain: DSM18836 for biotransformation. The drug concentrations were measured before and after a 12-h incubation by liquid-chromatography-coupled mass spectrometry (LC–MS). Particulars: 2 µM.
As for `CCOc1ccc2nc(S(N)(=O)=O)sc2c1` [ETHOXZOLAMIDE], the “Bacterial Biotransformation” value was “Compound metabolized”.
On the same count and under the same terms, as for `CC(=O)Oc1ccc(C(c2ccc(OC(C)=O)cc2)c2ccccn2)cc1` [BISACODYL], the entry is “Compound metabolized”.
On the same count and under the same terms, as for `COc1ccc2[nH]c([S+]([O-])Cc3ncc(C)c(OC)c3C)nc2c1` (stereo not given) [OMEPRAZOLE], the entry is “Compound metabolized”.

A short description of the next series: The drug is tested on Odoribacter splanchnicus strain: fecal isolate for biotransformation. The drug concentrations were measured before and after a 12-h incubation by liquid-chromatography-coupled mass spectrometry (LC–MS). Particulars: 2 µM.
As for `CCOc1ccc2nc(S(N)(=O)=O)sc2c1` [ETHOXZOLAMIDE], the “Bacterial Biotransformation” value is listed as “Compound metabolized”.
On the same count and under the same terms, as for `CC(=O)Oc1ccc(C(c2ccc(OC(C)=O)cc2)c2ccccn2)cc1` [BISACODYL], the entry is “Compound metabolized”; as for `COc1ccc2[nH]c([S+]([O-])Cc3ncc(C)c(OC)c3C)nc2c1` (stereo not given) [OMEPRAZOLE], “Compound metabolized”.

Another series in a line: The drug is tested on Clostridium scindens strain: ATCC35704 for biotransformation. The drug concentrations were measured before and after a 12-h incubation by liquid-chromatography-coupled mass spectrometry (LC–MS). Particulars: 2 µM.
With `CCOc1ccc2nc(S(N)(=O)=O)sc2c1` [ETHOXZOLAMIDE], the “Bacterial Biotransformation” value is “Compound metabolized”.
Take `CC(=O)Oc1ccc(C(c2ccc(OC(C)=O)cc2)c2ccccn2)cc1` [BISACODYL]: the “Bacterial Biotransformation” value was “Compound metabolized”.
With `COc1ccc2[nH]c([S+]([O-])Cc3ncc(C)c(OC)c3C)nc2c1` (stereo not given) [OMEPRAZOLE], the “Bacterial Biotransformation” value is on record as “Compound metabolized”.

Another series is described as follows: The drug is tested on Clostridium sporogenes strain: ATCC15579 for biotransformation. The drug concentrations were measured before and after a 12-h incubation by liquid-chromatography-coupled mass spectrometry (LC–MS). Particulars: 2 µM.
In the case of `CCOc1ccc2nc(S(N)(=O)=O)sc2c1` [ETHOXZOLAMIDE], the “Bacterial Biotransformation” value is “Compound metabolized”.
The same measure, in the same setting: then `CC(=O)Oc1ccc(C(c2ccc(OC(C)=O)cc2)c2ccccn2)cc1` [BISACODYL], with “Compound metabolized”.
Still for that read-out and setting: as for `COc1ccc2[nH]c([S+]([O-])Cc3ncc(C)c(OC)c3C)nc2c1` (stereo not given) [OMEPRAZOLE], the entry is “Compound metabolized”.

The next series in a line: The drug is tested on Coprococcus comes strain: ATCC27758 for biotransformation. The drug concentrations were measured before and after a 12-h incubation by liquid-chromatography-coupled mass spectrometry (LC–MS). The class given is ADME. Further details: dose 2 uM, timepoint 0 vs 12 hours. Particulars: 2 µM.
Take `CCOc1ccc2nc(S(N)(=O)=O)sc2c1` [ETHOXZOLAMIDE]: the “Bacterial Biotransformation” value is on record as “Compound metabolized”.
Take `CC(=O)Oc1ccc(C(c2ccc(OC(C)=O)cc2)c2ccccn2)cc1` [BISACODYL]: the “Bacterial Biotransformation” value is “Compound metabolized”.
Still for that read-out and setting: as for `COc1ccc2[nH]c([S+]([O-])Cc3ncc(C)c(OC)c3C)nc2c1` (stereo not given) [OMEPRAZOLE], the entry is “Compound metabolized”.

Another series can be described thus: The drug is tested on Eubacterium hallii strain: DSM3353 for biotransformation. The drug concentrations were measured before and after a 12-h incubation by liquid-chromatography-coupled mass spectrometry (LC–MS). Particulars: anaerobutyricum hallii, 2 µM.
`CCOc1ccc2nc(S(N)(=O)=O)sc2c1` [ETHOXZOLAMIDE]: the “Bacterial Biotransformation” value is listed as “Compound metabolized”.
The same measure, in the same setting: then `CC(=O)Oc1ccc(C(c2ccc(OC(C)=O)cc2)c2ccccn2)cc1` [BISACODYL], with “Compound metabolized”.
On the same count and under the same terms, then `COc1ccc2[nH]c([S+]([O-])Cc3ncc(C)c(OC)c3C)nc2c1` (stereo not given) [OMEPRAZOLE], with “Compound metabolized”.

The nature of another series: The drug is tested on Ruminococcus lactaris strain: ATCC29176 for biotransformation. The drug concentrations were measured before and after a 12-h incubation by liquid-chromatography-coupled mass spectrometry (LC–MS). Particulars: 2 µM.
`CCOc1ccc2nc(S(N)(=O)=O)sc2c1` [ETHOXZOLAMIDE]: the “Bacterial Biotransformation” value is on record as “Compound metabolized”.
On the same count and under the same terms, as for `CC(=O)Oc1ccc(C(c2ccc(OC(C)=O)cc2)c2ccccn2)cc1` [BISACODYL], the entry is “Compound metabolized”; as for `COc1ccc2[nH]c([S+]([O-])Cc3ncc(C)c(OC)c3C)nc2c1` (stereo not given) [OMEPRAZOLE], “Compound metabolized”.

A further series in a line: The drug is tested on Enterobacter cancerogenus strain: ATCC35316 for biotransformation. The drug concentrations were measured before and after a 12-h incubation by liquid-chromatography-coupled mass spectrometry (LC–MS). Particulars: 2 µM.
In the case of `CCOc1ccc2nc(S(N)(=O)=O)sc2c1` [ETHOXZOLAMIDE], the “Bacterial Biotransformation” value is given as “Compound metabolized”.
On to `CC(=O)Oc1ccc(C(c2ccc(OC(C)=O)cc2)c2ccccn2)cc1` [BISACODYL], for which the “Bacterial Biotransformation” value is reported as “Compound metabolized”.
Consider `COc1ccc2[nH]c([S+]([O-])Cc3ncc(C)c(OC)c3C)nc2c1` (stereo not given) [OMEPRAZOLE], for which the “Bacterial Biotransformation” value was “Compound metabolized”.

A short description of a further series: The drug is tested on Providencia rettgeri strain: DSM1131 for biotransformation. The drug concentrations were measured before and after a 12-h incubation by liquid-chromatography-coupled mass spectrometry (LC–MS). The format is ADME. Particulars: 2 µM. More on the design: dose 2 uM, timepoint 0 vs 12 hours.
As for `CCOc1ccc2nc(S(N)(=O)=O)sc2c1` [ETHOXZOLAMIDE], the “Bacterial Biotransformation” value is recorded as “Compound metabolized”.
For the molecule `CC(=O)Oc1ccc(C(c2ccc(OC(C)=O)cc2)c2ccccn2)cc1` [BISACODYL], the “Bacterial Biotransformation” value is listed as “Compound metabolized”.
In the case of `COc1ccc2[nH]c([S+]([O-])Cc3ncc(C)c(OC)c3C)nc2c1` (stereo not given) [OMEPRAZOLE], the “Bacterial Biotransformation” value is listed as “Compound metabolized”.

The conditions of another series: bacteroides fragilis, 12 h, 2 µM.
Description: The drug is tested on Bacteroides fragilis strain: 3397 (T10) for biotransformation. The drug concentrations were measured before and after a 12-h incubation by liquid-chromatography-coupled mass spectrometry (LC–MS)
For the molecule `CCOc1ccc2nc(S(N)(=O)=O)sc2c1` [ETHOXZOLAMIDE], the “Bacterial Biotransformation” value is recorded as “Compound metabolized”.
For the molecule `CC(=O)Oc1ccc(C(c2ccc(OC(C)=O)cc2)c2ccccn2)cc1` [BISACODYL], the “Bacterial Biotransformation” value is “Compound metabolized”.
On the same count and under the same terms, as for `COc1ccc2[nH]c([S+]([O-])Cc3ncc(C)c(OC)c3C)nc2c1` (stereo not given) [OMEPRAZOLE], the entry is “Compound metabolized”.

The conditions of a further series: bacteroides intestinalis, 12 h, 2 µM.
Description: The drug is tested on Bacteroides intestinalis strain: DSM17393 for biotransformation. The drug concentrations were measured before and after a 12-h incubation by liquid-chromatography-coupled mass spectrometry (LC–MS)
As to `CCOc1ccc2nc(S(N)(=O)=O)sc2c1` [ETHOXZOLAMIDE], the “Bacterial Biotransformation” value was “Compound metabolized”.
On to `CC(=O)Oc1ccc(C(c2ccc(OC(C)=O)cc2)c2ccccn2)cc1` [BISACODYL], for which the “Bacterial Biotransformation” value is listed as “Compound metabolized”.
The same measure, in the same setting: then `COc1ccc2[nH]c([S+]([O-])Cc3ncc(C)c(OC)c3C)nc2c1` (stereo not given) [OMEPRAZOLE], with “Compound metabolized”.

For a further series the following is noted: bacteroides thetaiotaomicron, 12 h, 2 µM.
Description: The drug is tested on Bacteroides thetaiotaomicron strain: 3731 for biotransformation. The drug concentrations were measured before and after a 12-h incubation by liquid-chromatography-coupled mass spectrometry (LC–MS)
Turning to `CCOc1ccc2nc(S(N)(=O)=O)sc2c1` [ETHOXZOLAMIDE], the “Bacterial Biotransformation” value was “Compound metabolized”.
Still for that read-out and setting: then `CC(=O)Oc1ccc(C(c2ccc(OC(C)=O)cc2)c2ccccn2)cc1` [BISACODYL], with “Compound metabolized”; and `COc1ccc2[nH]c([S+]([O-])Cc3ncc(C)c(OC)c3C)nc2c1` (stereo not given) [OMEPRAZOLE], with “Compound metabolized”.

The conditions of another series: parabacteroides distasonis, 12 h, 2 µM.
Description: The drug is tested on Parabacteroides distasonis strain: ATCC8503 for biotransformation. The drug concentrations were measured before and after a 12-h incubation by liquid-chromatography-coupled mass spectrometry (LC–MS)
Take `CCOc1ccc2nc(S(N)(=O)=O)sc2c1` [ETHOXZOLAMIDE]: the “Bacterial Biotransformation” value is reported as “Compound metabolized”.
Same read-out and setting: then `CC(=O)Oc1ccc(C(c2ccc(OC(C)=O)cc2)c2ccccn2)cc1` [BISACODYL], with “Compound metabolized”; and `COc1ccc2[nH]c([S+]([O-])Cc3ncc(C)c(OC)c3C)nc2c1` (stereo not given) [OMEPRAZOLE], with “Compound metabolized”.

The conditions of a further series: anaerostipes sp., 12 h, 2 µM.
Description: The drug is tested on Anaerostipes sp. strain: fecal isolate for biotransformation. The drug concentrations were measured before and after a 12-h incubation by liquid-chromatography-coupled mass spectrometry (LC–MS)
In the case of `CCOc1ccc2nc(S(N)(=O)=O)sc2c1` [ETHOXZOLAMIDE], the “Bacterial Biotransformation” value is “Compound metabolized”.
`CC(=O)Oc1ccc(C(c2ccc(OC(C)=O)cc2)c2ccccn2)cc1` [BISACODYL]: the “Bacterial Biotransformation” value is given as “Compound metabolized”.
Consider `COc1ccc2[nH]c([S+]([O-])Cc3ncc(C)c(OC)c3C)nc2c1` (stereo not given) [OMEPRAZOLE], for which the “Bacterial Biotransformation” value is reported as “Compound metabolized”.
